Results reported in patent US5229413A, “Compositions containing indole-2-carboxylate compounds for treatment of CNS disorders” (G. D. Searle & Co., priority 1992, dated 1993).
Like-named read-outs stand apart in the source and are kept apart here.

How the values were obtained:
[1] = molecular target: T1, strychnineinsensitive glycine recognition site (NMDA receptor-ion channel complex) (Rattus norvegicus, UniProt P35439); assay: Glycine binding assay, [3H]glycine, synaptic plasma membranes
T1 construct: Synaptic plasma membranes (SPM) were prepared from rat forebrain; from tissue; host or cells: rat forebrain synaptic plasma membranes
Procedure: Synaptic plasma membranes (SPM) were prepared from rat forebrain and stored as previously described [J. B. Monahan and J. Michel, J. Neurochem, 48, 1699-1708 (1987)]. Frozen membranes were thawed and diluted 1:20 with 0.04% triton X-100 in 50 mM tris/acetate (pH 7.4). Following incubation at 37° C. for 30 min., the SPM were collected by centrifugation at 95,000 X g for 15 min. The pellet was resuspended in 50 mM tris/acetate (pH 7.4, triton-free) and hand-homogenized five times. The membranes were again centrifuged as above. The pellet was washed two additional times with 50 mM tris/acetate (without homogenization) and centrifuged. The final pellet was resuspended with homogenization in 50 mM tris/acetate.
In the general receptor binding assay procedure, 10 nM [^3 H]glycine was added to the appropriate concentration of the test compounds and the assay initiated by the addition of 0.2-0.4 mg of ice cold SPM. The assay, which was done in 1.5 ml centrifuge tubes, was adjusted to a total volume of 1.0 ml with all additions being made in 50 mM tris/ acetate, pH 7.4 at 4° C. After a 10 minute incubation at 2° C., the samples were centrifuged for 15 min. at 12,000 g (4° C.) in a Beckman Microfuge 12. The supernatant was aspirated and the tube tip containing the pelleted membranes cut off and agitated in 0.5 ml of Beckman BTS-450 tissue solubilizer for a minimum of 6 hours at room temperature. Beckman MP scintillation cocktail (5 ml) containing 7 ml/liter acetic acid was then added and the samples counted on a Beckman LS 5800 liquid scintillation counter with automatic corrections for quenching and counting efficiency. […] The binding of [^3 H]glycine to the SPM was analyzed using Scatchard and Hill transformations and the Ki for other compounds was determined using logit-log analysis. Calculations and regression analysis were performed using templates developed for Lotus 123 as previously described [Pullan et al, Id.].

[2] = molecular target: N-methyl-D-aspartate (NMDA) receptor site; assay: Glutamate (NMDA) binding assay, L-[3H]glutamate, synaptic plasma membranes; conditions: L-[3H]glutamate 12.5 nM, pH 7.4, 0-4° C.; read-out: Ki apparent, NMDA
Procedure: The purpose of this assay is to determine the binding affinity of a compound of Formula I for the N-methyl-D-aspartate (NMDA) receptor site. This procedure was carried out as follows:
Synaptic plasma membranes (SPM) were prepared as previously described [Monahan, J. B. and Michel, J., "Identification and Characterization of an N-methyl-D-aspartate-specific L-[^3 H]glutamate Recognition Site in Synaptic Plasma Membranes, J. Neurochem., 48, 1699-1708 (1987)]. The SPM were stored at a concentration of 10-15 mg/ml in 0.32 M sucrose, 0.5 mM EDTA, 1 mM MgSO4, 5 mM Tris/SO4, pH 7.4, under liquid nitrogen. The identity and purity of the subcellular fractions were confirmed by both electron microscopy and marker enzymes. Protein concentrations were determined by using a modification of the method of Lowry [Ohnishi, S. T. and Barr, J. K., "A Simplified Method of Quantitating Proteins Using the Biuret and Phenol Reagents", Anal. Biochem., 86, 193-197 (1978)]. The SPM were thawed at room temperature, diluted twenty-fold with 50 mM Tris/acetate, pH 7.4, incubated at 37° C. for 30 minutes, and centrifuged at 100,000 g for 15 minutes. The dilution, incubation, and centrifugation was repeated a total of three times. This general method involved adding 12.5 nM of the L-[^3 H]glutamate radioligand to the appropriate concentration of the test compound and initiating the assay by the addition of ice cold SPM (0.2-0.45 mg). The binding assays were performed in 1.5 ml centrifuge tubes with the total volume adjusted to 1.0 ml. Additions of test compounds were made in 50 mM Tris/acetate, pH 7.4 and incubations were carried out at 0°-4° C. The incubation time for the NMDA binding assay was 10 minutes. To terminate the incubation, the samples were centrifuged for 15 minutes at 12,000 g and 4° C. in a Beckman Microfuge 12. The supernatant was aspirated and the pelleted membranes dissolved in Beckman Ready-Protein scintillation cocktail and the samples counted on a Beckman LS 5800 or 3801 liquid scintillation counter with automatic corrections for quenching and counting efficiency. Nonspecific binding was defined as the residual binding in the presence of 0.5 mM NMDA and was typically 15-25% of the total binding in the NMDA binding assay. Radioligand binding to the SPM was analyzed using Scatchard and Hill transformations and the Ki values of the compounds determined using logit-log transformations. Calculations and regression analysis were performed using templates developed for Lotus 1, 2, 3 as previously described [Pullan, L. M. "Automated Radioligand Receptor Binding Analysis with Templates for Lotus", Computer Appln. Biosci., 3 131 (1987)]. Binding results are reported in Table II for example compounds of the invention.

[3] = 10 nM [3H]glycine, pH 7.4, rat forebrain SPM, read-out: Ki apparent, Gly

Work on `O=C(O)Cc1c(CO)[nH]c2cc(Cl)ccc12` yielded a Ki [1, 3] greater than 30 µM.

`O=Cc1c(C(=O)O)[nH]c2ccccc12` [compound 24, 3-formylindole-2-carboxylic acid] was tested, and the Ki [2] was greater than 100 µM.

Compound `O=C(O)c1cc2cc(Cl)ccc2[nH]1` [compound 14, 5-chloroindole-2-carboxylic acid] has a Ki [2] greater than 100 µM and a Ki [1, 3] greater than 100 µM.

With `CCOC(=O)Cc1c(C=O)[nH]c2cc(Cl)ccc12` [compound 51, ethyl 6-chloro-2-formyl-3-indole acetate] the Ki [1, 3] was greater than 30 µM.

In the case of `O=C(O)Cc1c(C(=O)O)[nH]c2ccc(Cl)cc12` [Compound No. 3, 2-carboxy-5-chloro-3-indoleacetic acid], the Ki [2] is reported as greater than 100 µM and the Ki [1, 3] is reported as 11.7 µM.

`CCOC(=O)Cc1c(C(=O)OCC)[nH]c2ccccc12` [compound 19, ethyl 2-carboethoxy-3-indoleacetate] gave a Ki [2] greater than 100 µM and a Ki [1, 3] greater than 100 µM.

With `CN(C)CCNC(=O)Cc1c(C(=O)NCCN(C)C)[nH]c2cc(Cl)ccc12` [compound 54, 2-carboxy-6-chloro-3-indole acetic acid bis-2-dimethyl aminoethylamide] the Ki [1, 3] was greater than 30 µM.

`O=C(O)CCc1c(C(=O)O)[nH]c2ccccc12` [compound 7, 2-carboxy-3-indolepropanoic acid] gave a Ki [2] greater than 100 µM and a Ki [1, 3] greater than 100 µM.

With `O=C(O)Cc1c(C(=O)O)[nH]c2ccc(F)cc12` [compound 5, 2-carboxy-5-fluoro-3-indoleacetic acid] the Ki [2] was greater than 100 µM and the Ki [1, 3] was 17.5 µM.

`O=C(O)c1[nH]c2ccccc2c1CCO` [compound 20, 3-(2-hydroxyethyl)indole-2-carboxylic acid] showed a Ki [1, 3] greater than 10 µM.

With `O=C(O)CCCCc1c(C(=O)O)[nH]c2ccccc12` [compound 9, 2-carboxy-3-indolepentanoic acid] the Ki [2] was greater than 100 µM and the Ki [1, 3] was greater than 100 µM.

In the case of `O=C(Cc1c(C(=O)O)[nH]c2cc(Cl)ccc12)NCCO` [compound 39, 2-carboxy-6-chloro-3-indoleacetic acid 3-(2-hydroxyethyl)amide], the Ki [1, 3] is reported as 11.4 µM.

Compound `O=C(O)c1cc2ccccc2[nH]1` [compound 13, indole-2-carboxylic acid] has a Ki [2] greater than 100 µM and a Ki [1] greater than 100 µM.

`COc1ccc2[nH]c(C(=O)O)cc2c1` [compound 18, 5-methoxyindole-2-carboxylic acid] gave a Ki [2] greater than 100 µM and a Ki [1, 3] greater than 100 µM.

Work on `CCOC(=O)Cc1c(C(=O)OCC)[nH]c2cc(Cl)ccc12` [compound 22, ethyl 2-carboethoxy-6-chloro-3-indoleacetate] yielded a Ki [1, 3] greater than 100 µM.

In the case of `CN(C)C(=O)Cc1c(C(=O)O)[nH]c2cc(Cl)ccc12` [compound 36, 2-carboxy-6-chloro-3-indole acetic acid 3-dimethyl amide], the Ki [1, 3] is reported as greater than 30 µM.

With `O=C(O)c1cc2cc(F)ccc2[nH]1` [compound 15, 5-fluoroindole-2-carboxylic acid] the Ki [2] was greater than 100 µM.

`O=C1OCCc2c1[nH]c1ccccc21` [compound 23, 4,9-dihydropyrano[3,4-b]indol-1(3H)-one] showed a Ki [1, 3] greater than 100 µM.

For `O=C(O)c1cc2c(C(=O)O)cccc2[nH]1` [compound 26, 4-carboxyindole-2-carboxylic acid], the Ki [1, 3] was greater than 20 µM.

With `CCOC(=O)Cc1c(C(=O)OCCCN(C)C)[nH]c2cc(Cl)ccc12` [compound 34, ethyl 2-(3-dimethylaminopropyloxycarbonyl)-6-chloro-3-indole acetate] the Ki [1, 3] was greater than 30 µM.

For `O=C(O)c1[nH]c2ccccc2c1CO` [Compound No. 12, 3-hydroxymethylindole-2-carboxylic acid], the Ki [2] was greater than 100 µM and the Ki [1, 3] was greater than 100 µM.

`CCCOC(=O)Cc1c(C(=O)O)[nH]c2cc(Cl)ccc12` [compound 42, propyl 2-carboxy-6-chloro-3-indoleacetate] gave a Ki [1, 3] of 7 µM.

Work on `O=C(O)c1cc2c(OCc3ccccc3)cccc2[nH]1` [compound 27, 4-benzyloxyindole-2-carboxylic acid] yielded a Ki [1, 3] greater than 20 µM.

Compound `CCOC(=O)c1[nH]c2cc(Cl)ccc2c1CC(N)=O` [compound 55, 2-carboethoxy-6-chloro-3-indoleacetamide] has a Ki [1, 3] greater than 30 µM.

`CCC(C(=O)O)c1c(C(=O)O)[nH]c2ccccc12` (stereo not shown) [compound 10, 2-(2-carboxy-3-indole)butanoic acid] gave a Ki [2] greater than 100 µM and a Ki [1, 3] greater than 100 µM.

`O=C(O)c1cc2c(O)cccc2[nH]1` [compound 28, 4-hydroxyindole-2-carboxylic acid] was tested, and the Ki [1, 3] was greater than 20 µM.

`CN(C)CCCNC(=O)Cc1c(C(=O)O)[nH]c2cc(Cl)ccc12` [compound 40, 2-carboxy-6-chloro-3-indoleacetic acid 3-(3-dimethylaminopropyl)amide] gave a Ki [1, 3] greater than 30 µM.

Work on `CC(=O)Cc1c(C(=O)O)[nH]c2ccccc12` [compound 25, 3-(2-oxopropyl)indole-2-carboxylic acid] yielded a Ki [1, 3] greater than 30 µM.

`O=C(O)CCCc1c(C(=O)O)[nH]c2ccccc12` [compound 8, 2-carboxy-3-indolebutanoic acid] was tested, and the Ki [2] was greater than 100 µM and the Ki [1, 3] was greater than 100 µM.

Compound `O=C(O)Cc1c(C(=O)O)[nH]c2ccc(Br)cc12` [compound 4, 5-bromo-2-carboxy-3-indoleacetic acid] has a Ki [2] greater than 100 µM and a Ki [1, 3] of 26.2 µM.

Work on `Cc1cc2c(CC(=O)O)c(C(=O)O)[nH]c2cc1Cl` [compound 21, 2-carboxy-6-chloro-5-methylindole-3-acetic acid] yielded a Ki [1, 3] greater than 10 µM.

`Cc1ccc2[nH]c(C(=O)O)cc2c1` [compound 17, 5-methylindole-2-carboxylic acid] gave a Ki [2] greater than 100 µM and a Ki [1, 3] greater than 100 µM.

In the case of `Cn1c(C(=O)O)c(CC(=O)O)c2ccccc21` [compound 2, 2-carboxy-1-methyl-3-indoleacetic acid], the Ki [2] is reported as greater than 100 µM and the Ki [1, 3] is reported as greater than 100 µM.

In the case of `O=C(Cc1c(C(=O)O)[nH]c2cc(Cl)ccc12)NCCc1ccccc1` [compound 45, 2-carboxy-6-chloro-3-indoleacetic acid 3-phenylethylamide], the Ki [1, 3] is reported as 0.47 µM.

`O=C(O)c1[nH]c2cc(Cl)ccc2c1O` [Compound No. 11, 6-chloro-3-hydroxyindole-2-carboxylic acid] showed a Ki [2] greater than 100 µM and a Ki [1, 3] greater than 100 µM.

Work on `CCOC(=O)c1[nH]c2cc(Cl)ccc2c1CCCl` [compound 47, ethyl 6-chloro-3-(2-chloroethyl)-2-indolecarboxylate] yielded a Ki [1, 3] greater than 10 µM.

`O=C(O)Cc1c(C(=O)O)[nH]c2c(Cl)cccc12` [compound 29, 2-carboxy-7-chloroindole-3-acetic acid] gave a Ki [1, 3] greater than 30 µM.

`O=C(O)c1cc2cc(Br)ccc2[nH]1` [compound 16, 5-bromoindole-2-carboxylic acid] gave a Ki [2] greater than 100 µM and a Ki [1, 3] greater than 100 µM.

`CCOC(=O)Cc1c(CO)[nH]c2cc(Cl)ccc12` [compound 52, ethyl 6-chloro-2-hydroxymethyl-3-indoleacetate] showed a Ki [1, 3] greater than 30 µM.
